From ChEMBL document CHEMBL1159315, “Constituents of the bark and twigs of Artocarpus dadah with cyclooxygenase inhibitory activity” (J Nat Prod, 2002)

Key:
[1] = molecular target: Prostaglandin G/H synthase 1 (Homo sapiens, UniProt P23219)
[2] = molecular target: T1, Prostaglandin G/H synthase 2 (Homo sapiens, UniProt P35354)
T1 sequence (P35354 whole entry): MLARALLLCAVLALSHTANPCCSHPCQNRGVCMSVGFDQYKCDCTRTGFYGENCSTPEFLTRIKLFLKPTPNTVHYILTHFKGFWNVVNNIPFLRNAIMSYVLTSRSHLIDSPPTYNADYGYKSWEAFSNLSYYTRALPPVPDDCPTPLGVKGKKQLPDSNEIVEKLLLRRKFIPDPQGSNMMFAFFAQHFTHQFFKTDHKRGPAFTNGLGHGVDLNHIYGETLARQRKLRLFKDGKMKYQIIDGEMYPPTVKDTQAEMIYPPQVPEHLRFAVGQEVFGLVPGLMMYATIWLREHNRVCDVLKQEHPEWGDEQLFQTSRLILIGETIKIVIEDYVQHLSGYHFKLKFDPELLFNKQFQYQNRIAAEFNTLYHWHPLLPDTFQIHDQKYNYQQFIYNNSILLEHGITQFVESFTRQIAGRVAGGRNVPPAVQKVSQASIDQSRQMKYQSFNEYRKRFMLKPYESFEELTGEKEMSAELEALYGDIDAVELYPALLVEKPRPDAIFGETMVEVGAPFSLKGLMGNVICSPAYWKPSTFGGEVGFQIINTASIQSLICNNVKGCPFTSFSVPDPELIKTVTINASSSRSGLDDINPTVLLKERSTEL

[3] = Inhibition of DMBA-induced preneoplastic lesions in mouse mammary gland organ culture at 10 ug/mL; assay type: functional

Prostaglandin G/H synthase 1, sequence (P23219 whole entry): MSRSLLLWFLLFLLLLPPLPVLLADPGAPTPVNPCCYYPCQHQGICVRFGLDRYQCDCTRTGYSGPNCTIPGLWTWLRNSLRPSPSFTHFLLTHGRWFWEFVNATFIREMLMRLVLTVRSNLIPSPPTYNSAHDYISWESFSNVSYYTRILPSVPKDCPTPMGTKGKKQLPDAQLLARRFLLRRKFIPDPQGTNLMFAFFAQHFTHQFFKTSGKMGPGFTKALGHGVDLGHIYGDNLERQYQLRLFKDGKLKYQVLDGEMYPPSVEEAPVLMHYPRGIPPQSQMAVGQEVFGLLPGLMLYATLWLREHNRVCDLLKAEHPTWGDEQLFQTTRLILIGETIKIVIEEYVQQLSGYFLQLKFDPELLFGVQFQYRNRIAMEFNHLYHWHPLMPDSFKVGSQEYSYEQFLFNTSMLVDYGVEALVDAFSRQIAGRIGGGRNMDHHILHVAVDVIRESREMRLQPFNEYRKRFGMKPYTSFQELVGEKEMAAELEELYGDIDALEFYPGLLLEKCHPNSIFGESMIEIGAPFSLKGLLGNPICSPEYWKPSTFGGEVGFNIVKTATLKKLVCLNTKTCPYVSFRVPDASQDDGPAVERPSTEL

Compound	IC50 [1] [µM]	IC50 [2] [µM]	inhibition at 10 µg/mL [3] [%]
CC(C)(O)[C@H](O)Cc1cc(/C=C/c2cc(O)cc(O)c2)ccc1O	0.48	13.9	–
CC(C)=CCc1cc(/C=C/c2cc(O)cc(O)c2)ccc1O	0.61	9.5	7.3
CC(C)=CCc1cc(/C=C/c2cc(O)cc(O)c2)c(O)cc1O	4.1	36.7	0
COc1cc(C(O)C(COC(=O)/C=C/c2ccc(O)cc2)Oc2c(OC)cc(/C=C/COC(=O)/C=C/c3ccc(O)cc3)cc2OC)ccc1O (configuration not stated) [DADAHOL A]	> 143	> 143	–
COc1cc(C(O)C(COC(=O)/C=C/c2ccc(O)cc2)Oc2ccc(/C=C/COC(=O)/C=C/c3ccc(O)cc3)cc2OC)ccc1O (configuration not stated) [DADAHOL B]	> 150	> 150	–
C/C(=C/Cc1c(O)ccc(C(=O)/C=C/c2ccc(O)cc2)c1O)COC(=O)/C=C/c1ccc(O)cc1 [GEMICHALCONE B]	14	38.4	33.3
C/C(=C\Cc1c(O)ccc(C(=O)/C=C/c2ccc(O)cc2)c1O)COC(=O)/C=C/c1ccc(O)cc1 [ISOGEMICHALCONE B]	11.7	15	–
Oc1cc(O)cc(-c2cc3ccc(O)cc3o2)c1 [MORACIN M]	0.5	22.3	33.3
O=c1cc(-c2ccc(O)cc2O)oc2cc(O)cc(O)c12 [NORARTOCARPETIN]	14	> 100	85.2
Oc1cc(O)cc(/C=C/c2ccc(O)cc2O)c1 [OXYRESVERATROL]	1.4	109	33.3
Oc1ccc(/C=C/c2cc(O)cc(O)c2)cc1 [RESVERATROL]	–	–	87.5

More lines, main results first:

IC50 [1] [µM]	IC50 [2] [µM]	Compound	inhibition at 10 µg/mL [3] [%]
8.3	19.7	C[C@@H]1O[C@@H](O[C@H]2Cc3c(O)cc(O)cc3O[C@@H]2c2ccc(O)cc2)[C@H](O)[C@H](O)[C@H]1O	0
36.7	–	Oc1cc(O)c2c(c1)O[C@H](c1ccc(O)c(O)c1)[C@@H](O)C2 [CIANIDANOL]	50
67.1	> 100	O=C1c2c(O)cc(O)cc2O[C@H](c2ccc(O)cc2O)[C@H]1O [DIHYDROMORIN]	81.5
> 230	> 230	CC1OC(OC2C(=O)c3c(O)cc(O)cc3OC2c2ccc(O)cc2)C(O)C(O)C1O (configuration not stated) [ENGELETIN]	–
–	69.7	Oc1ccc([C@H]2Oc3cc(O)cc(O)c3C[C@H]2O)cc1 [EPIAFZELECHIN (2R,3R)(-)]	81.5
5.9	46.4	O=C1CC(c2ccc(O)cc2O)Oc2cc(O)cc(O)c21 (configuration not stated) [STEPPOGENIN]	66.7
